Measurements from patent US7608688B2, “HIV-1 protein associated with broadly reactive neutralizing antibody response” (The Henry M. Jackson Foundation for the Advancement of …, priority 1998, dated 2009).
Converted amounts (≈) assume the structure as drawn. Where two headings read alike, the source gives them in different places. Bridge positions count the residues as written; N and C are the ends. Peptide text beside a SMILES is read from it.

Experiment: Solubility of V3 peptides
Format: physicochemical
Conditions: for solubility: 10 percent DMSO in water, estimated by turbidity, read-out: solubility in 10 percent DMSO solution at pH=7.4
Protocol: To obtain cyclic peptides, solutions of the R2 and R2(313-4PM/HI, 325Q/D) V3 35-mers in dimethylsulfoxide (DMSO), 10 mg/ml, were diluted 1:10 in water at room temperature or 37° C. and the pH was adjusted to 8.5 with ammonium hydroxide. These solutions were aerated by bubbling air through the solutions for periods ≧1 hour. Following aeration, the pH was adjusted to 7.4 using hydrochloric acid. A portion of the R2 35-mer peptide precipitated during these procedures. To obtain an approximate quantitation of the amount of R2 V3 35-mer that remained in solution, the turbidity of the suspension was determined at 480 nm wavelength visible light using a spectrophotometer. The spectrophotometer was blanked with a solution of 10 percent DMSO in water, and a standard curve was produced using slurries of known amounts of the 35-mer peptide suspended in water. The amount of precipitate estimated by turbidity was subtracted from the amount of peptide added at the beginning of the preparation procedure to estimate the amount remaining in solution. […] Peptides were sterilized by passage through 0.22μ pore size filters prior to use.

Compound | solubility in water (water) | solubility (pH 7.4, processed at 37° C.) [µg/mL] | solubility (pH 7.4, processed at room temperature) [µg/mL]
CSRPNNNTRKSIPMGPGRAFYTTGQIIGDIRQAHC (Human immunodeficiency virus type 1; R2 strain V3 domain) [R2 V3 35-mer] | insoluble in water | – | –
CC[C@H](C)[C@@H]1NC(=O)[C@H](CC(=O)O)NC(=O)CNC(=O)[C@H]([C@@H](C)CC)NC(=O)[C@H]([C@@H](C)CC)NC(=O)[C@H](CCC(N)=O)NC(=O)CNC(=O)[C@H]([C@@H](C)O)NC(=O)[C@H]([C@@H](C)O)NC(=O)[C@H](Cc2ccc(O)cc2)NC(=O)[C@H](Cc2ccccc2)NC(=O)[C@H](C)NC(=O)[C@H](CCCNC(=N)N)NC(=O)CNC(=O)[C@@H]2CCCN2C(=O)CNC(=O)[C@H](CCSC)NC(=O)[C@@H]2CCCN2C(=O)[C@H]([C@@H](C)CC)NC(=O)[C@H](CO)NC(=O)[C@H](CCCCN)NC(=O)[C@H](CCCNC(=N)N)NC(=O)[C@H]([C@@H](C)O)NC(=O)[C@H](CC(N)=O)NC(=O)[C@H](CC(N)=O)NC(=O)[C@H](CC(N)=O)NC(=O)[C@@H]2CCCN2C(=O)[C@H](CCCNC(=N)N)NC(=O)[C@H](CO)NC(=O)[C@@H](N)CSSC[C@@H](C(=O)O)NC(=O)[C@H](Cc2c[nH]cn2)NC(=O)[C@H](C)NC(=O)[C@H](CCC(N)=O)NC(=O)[C@H](CCCNC(=N)N)NC1=O [cyclic 35-mer R2 V3 peptide] (H-CSRPNNNTRKSIPMGPGRAFYTTGQIIGDIRQAHC-OH; disulfide 1-35; N-terminus and C-terminus assumed) | – | 850 to 900 (≈ 220 to 233 µM) | 300 to 350 (≈ 77.7 to 90.7 µM)
